From US20150105252A1, “SUBSTITUTED PYRAZOLES AS HERBICIDES” (E I DU PONT DE NEMOURS AND COMPANY, priority 2013, published 2015)

Legend:
corn = assay: Test F preemergence; assay type: in vivo, Zea mays
In short: (§1)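 Visual rating 0–100 vs untreated controls (0 = no effect, 100 = complete control) after 14–21 d greenhouse. Pre: seeds in silt loam soil. Post: plants 2–18 cm, 1–4 leaf. Formulation: non-phytotoxic solvent mix + surfactant.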

giant foxtail = assay: Test F preemergence; assay type: in vivo, Setaria faberii
In short: as §1

field bindweed = assay: Test F preemergence; assay type: in vivo, Convolvulus arvensis
In short: as §1

barley, spring = assay: Test D preemergence; assay type: in vivo, Hordeum vulgare; conditions: scale 0 to 100
Text: (§2) Seeds of plant species selected from bluegrass (annual bluegrass, Poa annua), blackgrass (Alopecurus myosuroides), canarygrass (littleseed canarygrass, Phalaris minor), chickweed (common chickweed, Stellaria media), galium (catchweed bedstraw, Galium aparine), bromegrass, downy (downy bromegrass, Bromus tectorum), field poppy (Papaver rhoeas), field violet (Viola arvensis), foxtail, green (green foxtail, Setaria viridis), deadnettle (henbit deadnettle, Lamium amplexicaule), ryegrass, Italian (Italian ryegrass, Lolium multiflorum), kochia (Kochia scoparia), lambsquarters (Chenopodium album), oilseed rape (Brassica napus), pigweed (redroot pigweed, Amaranthus retroflexus), chamomile (scentless chamomile, Matricaria inodora), speedwell (bird's-eye speedwell, Veronica persica), barley, spring (spring barley, Hordeum vulgare), wheat, spring (spring wheat, Triticum aestivum), buckwheat, wild (wild buckwheat, Polygonum convolvulus), mustard, wild (wild mustard, Sinapis arvensis), oat, wild (wild oat, Avena fatua), radish, wild (wild radish, Raphanus raphanistrum), windgrass (Apera spica-venti), Russian thistle (Salsola kali), barley, winter (winter barley, Hordeum vulgare), and wheat, winter (winter wheat, Triticum aestivum) were planted into a silt loam soil and treated preemergence with test chemicals formulated in a non-phytotoxic solvent mixture which included a surfactant.
(§3) At the same time, these species were planted in pots containing Redi-Earth® planting medium (Scotts Company, 14111 Scottslawn Road, Marysville, Ohio 43041) comprising spaghnum peat moss, vermiculite, wetting agent and starter nutrients and treated with postemergence applications of the test chemicals formulated in the same manner. Plants ranged in height from 2 to 18 cm (1- to 4-leaf stage). Treated plants and controls were maintained in a controlled growth environment for 14 to 21 days after which time all species were compared to controls and visually evaluated. Plant response ratings, summarized in Table D, are based on a scale of 0 to 100 where 0 is no effect and 100 is complete control. A dash (-) response means no test result.

barley, winter = assay: Test D preemergence; assay type: in vivo, Hordeum vulgare; conditions: scale 0 to 100
Text: as §2, §3

barnyardgrass = assay: Test F preemergence; assay type: in vivo, Echinochloa crus-galli
In short: as §1

deadnettle = assay: Test D preemergence; assay type: in vivo, Lamium amplexicaule; conditions: scale 0 to 100
Text: as §2, §3

radish, wild = assay: Test D postemergence; assay type: in vivo, Raphanus raphanistrum; conditions: scale 0 to 100
Text: as §2, §3

chickweed = assay: Test D postemergence; assay type: in vivo, Stellaria media; conditions: scale 0 to 100
Text: as §2, §3

fall panicum = assay: Test F preemergence; assay type: in vivo, Panicum dichotomiflorum
In short: as §1

pigweed = assay: Test D preemergence; assay type: in vivo, Amaranthus retroflexus; conditions: scale 0 to 100
Text: as §2, §3

lambsquarters [1] = assay: Test D preemergence; assay type: in vivo, Chenopodium album; conditions: scale 0 to 100
Text: as §2, §3

Surinam grass = assay: Test F preemergence; assay type: in vivo, Brachiaria decumbens
In short: as §1

lambsquarters [2] = assay: Test F preemergence; assay type: in vivo, Chenopodium album
In short: as §1

[3] = Preemergence, 31 g ai/ha, scale 0 to 100
[4] = Preemergence, 62 g ai/ha, scale 0 to 100
[5] = Preemergence, 125 g ai/ha, scale 0 to 100
[6] = preemergence, 8 g ai/ha, scale 0 to 100, 100 is complete control
[7] = preemergence, 16 g ai/ha, scale 0 to 100, 100 is complete control
[8] = Preemergence, 16 g ai/ha, scale 0 to 100

CCCc1cc(C(=O)NCC(F)(F)F)nn1Cc1ccnc(C(F)(F)F)c1 [Compound 105]
Plant response rating, Corn (corn; [3]): 40 | Plant response rating, Corn (corn; [4]): 40 | Plant response rating, Corn (corn; [5]): 60 | Plant response rating, Corn (corn; [6]): 20 | Plant response rating, Corn (corn; [7]): 30 | Plant response rating, Giant Foxtail (giant foxtail; [3]): 100 | Plant response rating, Giant Foxtail (giant foxtail; [4]): 100 | Plant response rating, Giant Foxtail (giant foxtail; [5]): 100 | Plant response rating, Giant Foxtail (giant foxtail; [6]): 10 | Plant response rating, Giant Foxtail (giant foxtail; [7]): 65 | Plant response rating, Field Bindweed (field bindweed; [3]): 75 | Plant response rating, Field Bindweed (field bindweed; [4]): 40 | Plant response rating, Field Bindweed (field bindweed; [5]): 100 | Plant response rating, Field Bindweed (field bindweed; [6]): 0 | Plant response rating, Field Bindweed (field bindweed; [7]): 10 | Plant response rating, Barley, Spring (barley, spring; 31 g ai/ha): 15 | Plant response rating, Barley, Spring (barley, spring; 62 g ai/ha): 40 | Plant response rating, Barley, Spring (barley, spring; 125 g ai/ha): 65 | Plant response rating, Barley, Spring (barley, spring; 250 g ai/ha): 85 | Plant response rating, Barley, Winter (barley, winter; 31 g ai/ha): 5 | Plant response rating, Barley, Winter (barley, winter; 62 g ai/ha): 40 | Plant response rating, Barley, Winter (barley, winter; 125 g ai/ha): 70 | Plant response rating, Barley, Winter (barley, winter; 250 g ai/ha): 95 | Plant response rating, Barnyardgrass (barnyardgrass; [3]): 30 | Plant response rating, Barnyardgrass (barnyardgrass; [4]): 98 | Plant response rating, Barnyardgrass (barnyardgrass; [5]): 98 | Plant response rating, Barnyardgrass (barnyardgrass; [6]): 0 | Plant response rating, Barnyardgrass (barnyardgrass; [7]): 5 | Plant response rating, Deadnettle (deadnettle; 31 g ai/ha): 5 | Plant response rating, Deadnettle (deadnettle; 125 g ai/ha): 20 | Plant response rating, Deadnettle (deadnettle; 250 g ai/ha): 35 | Radish, Wild plant response rating (radish, wild; Postemergence, 31 g ai/ha): 35 | Radish, Wild plant response rating (radish, wild; Postemergence, 125 g ai/ha): 70 | Radish, Wild plant response rating (radish, wild; Postemergence, 250 g ai/ha): 80 | Radish, Wild plant response rating (radish, wild; postemergence, 62 g ai/ha): 55 | Chickweed plant response rating (chickweed; Postemergence, 31 g ai/ha): 20 | Chickweed plant response rating (chickweed; Postemergence, 125 g ai/ha): 70 | Chickweed plant response rating (chickweed; Postemergence, 250 g ai/ha): 80 | Chickweed plant response rating (chickweed; postemergence, 62 g ai/ha): 55 | Plant response rating, Fall Panicum (fall panicum; [3]): 100 | Plant response rating, Fall Panicum (fall panicum; [4]): 100 | Plant response rating, Fall Panicum (fall panicum; [5]): 100 | Plant response rating, Fall Panicum (fall panicum; [6]): 75 | Plant response rating, Fall Panicum (fall panicum; [7]): 80 | Plant response rating, Pigweed (pigweed; 31 g ai/ha): 100 | Plant response rating, Pigweed (pigweed; 62 g ai/ha): 100 | Plant response rating, Pigweed (pigweed; 125 g ai/ha): 100 | Plant response rating, Pigweed (pigweed; 250 g ai/ha): 100 | Plant response rating, Lambsquarters (lambsquarters [1]; 31 g ai/ha): 100 | Plant response rating, Lambsquarters (lambsquarters [1]; 62 g ai/ha): 100 | Plant response rating, Lambsquarters (lambsquarters [1]; 125 g ai/ha): 100 | Plant response rating, Lambsquarters (lambsquarters [1]; 250 g ai/ha): 100 | Plant response rating, Surinam Grass (Surinam grass; [3]): 10 | Plant response rating, Surinam Grass (Surinam grass; [4]): 35 | Plant response rating, Surinam Grass (Surinam grass; [5]): 40 | Plant response rating, Surinam Grass (Surinam grass; [6]): 0 | Plant response rating, Surinam Grass (Surinam grass; [7]): 10 | Plant response rating, Lambsquarters (lambsquarters [2]; [3]): 100 | Plant response rating, Lambsquarters (lambsquarters [2]; [4]): 100 | Plant response rating, Lambsquarters (lambsquarters [2]; [5]): 100 | Plant response rating, Lambsquarters (lambsquarters [2]; [6]): 35 | Plant response rating, Lambsquarters (lambsquarters [2]; [7]): 35

CCOc1cc(C(=O)NC(C)C)nn1Cc1ccnc(C(F)(F)F)c1 [Compound 188]
Plant response rating, Corn (corn; [4]): 15 | Plant response rating, Corn (corn; [5]): 65 | Plant response rating, Corn (corn; [6]): 20 | Plant response rating, Giant Foxtail (giant foxtail; [4]): 100 | Plant response rating, Giant Foxtail (giant foxtail; [5]): 100 | Plant response rating, Giant Foxtail (giant foxtail; [6]): 5 | Plant response rating, Field Bindweed (field bindweed; [8]): 30 | Plant response rating, Field Bindweed (field bindweed; [4]): 40 | Plant response rating, Field Bindweed (field bindweed; [5]): 100 | Plant response rating, Field Bindweed (field bindweed; [6]): 35 | Plant response rating, Barley, Spring (barley, spring; 31 g ai/ha): 65 | Plant response rating, Barley, Spring (barley, spring; 62 g ai/ha): 75 | Plant response rating, Barley, Spring (barley, spring; 125 g ai/ha): 85 | Plant response rating, Barley, Spring (barley, spring; 250 g ai/ha): 95 | Plant response rating, Barley, Winter (barley, winter; 31 g ai/ha): 35 | Plant response rating, Barley, Winter (barley, winter; 62 g ai/ha): 70 | Plant response rating, Barley, Winter (barley, winter; 125 g ai/ha): 80 | Plant response rating, Barley, Winter (barley, winter; 250 g ai/ha): 100 | Plant response rating, Barnyardgrass (barnyardgrass; [8]): 25 | Plant response rating, Barnyardgrass (barnyardgrass; [4]): 80 | Plant response rating, Barnyardgrass (barnyardgrass; [5]): 100 | Plant response rating, Barnyardgrass (barnyardgrass; [6]): 0 | Plant response rating, Deadnettle (deadnettle; 31 g ai/ha): 100 | Plant response rating, Deadnettle (deadnettle; 62 g ai/ha): 100 | Plant response rating, Deadnettle (deadnettle; 125 g ai/ha): 100 | Plant response rating, Deadnettle (deadnettle; 250 g ai/ha): 100 | Radish, Wild plant response rating (radish, wild; Postemergence, 31 g ai/ha): 70 | Radish, Wild plant response rating (radish, wild; Postemergence, 125 g ai/ha): 70 | Radish, Wild plant response rating (radish, wild; Postemergence, 250 g ai/ha): 90 | Radish, Wild plant response rating (radish, wild; postemergence, 62 g ai/ha): 70 | Chickweed plant response rating (chickweed; Postemergence, 31 g ai/ha): 65 | Chickweed plant response rating (chickweed; Postemergence, 125 g ai/ha): 75 | Chickweed plant response rating (chickweed; Postemergence, 250 g ai/ha): 95 | Chickweed plant response rating (chickweed; postemergence, 62 g ai/ha): 65 | Plant response rating, Fall Panicum (fall panicum; [8]): 100 | Plant response rating, Fall Panicum (fall panicum; [4]): 100 | Plant response rating, Fall Panicum (fall panicum; [5]): 100 | Plant response rating, Fall Panicum (fall panicum; [6]): 75 | Plant response rating, Pigweed (pigweed; 62 g ai/ha): 100 | Plant response rating, Pigweed (pigweed; 125 g ai/ha): 100 | Plant response rating, Pigweed (pigweed; 250 g ai/ha): 100 | Plant response rating, Lambsquarters (lambsquarters [1]; 62 g ai/ha): 100 | Plant response rating, Lambsquarters (lambsquarters [1]; 125 g ai/ha): 100 | Plant response rating, Lambsquarters (lambsquarters [1]; 250 g ai/ha): 100 | Plant response rating, Surinam Grass (Surinam grass; [4]): 100 | Plant response rating, Surinam Grass (Surinam grass; [5]): 100 | Plant response rating, Surinam Grass (Surinam grass; [6]): 20 | Plant response rating, Lambsquarters (lambsquarters [2]; [4]): 100 | Plant response rating, Lambsquarters (lambsquarters [2]; [5]): 100 | Plant response rating, Lambsquarters (lambsquarters [2]; [6]): 50
